The values below come from EP1506969B1, “Compounds with growth hormone releasing properties” (Helsinn Therapeutics (U.S.), Inc., priority 1998, dated 2010).

Series [1] relates to trypsin, chymotrypsin and elastase. Kind of series: Metabolic stability in pancreatic enzyme mix (ESMS, selected ion monitoring). Conditions: stability: decrease in SIM signal after 24 h in degradation solution, chymotrypsin and elastase in 100 mM ammoniumbicarbonate pH 8.0, 37°C.
Description: (§1) Compounds is dissolved at a concentration of 1 mg/ml in water. 25 ml of this solution is added to 175 ml of the respective enzyme-solution (resulting in an enzyme:substrate ratio (w/w) of approximately 1:5). The solution is left at 37°C overnight. 10 ml of the various degradation solutions is analyzed against a corresponding zero-sample using flow injection electrospray mass spectrometry (ESMS) with selected ion monitoring of the molecular ion. If the signal has decreased more than 20% compared to the zero-sample, the remainder of the solution is analyzed by HPLC and mass spectrometry in order to identify the extent and site(s) of degradation precisely.
(§2) Enzymes (trypsin, chymotrypsin, elastase aminopeptidase M and carboxypeptidase Y and B) were all purchased from Boehringer Mannheim GmbH (Mannheim, Germany)
Pancreatic enzyme mix: trypsin, chymotrypsin and elastase in 100 mM ammoniumbicarbonate pH 8.0 (all concentrations 0.025 mg/ml).
(§3) Mass spectrometric analysis was performed using two different mass spectrometers. […]
(§4) Quantification of the compounds (before and after degradation) was done on the API III instrument using single ion monitoring of the molecular ion in question with flow injection of the analyte. […]
For series [2], the system named is carboxypeptidase Y and B. The experiment in a line: Metabolic stability in carboxypeptidase mix (ESMS, selected ion monitoring). Conditions: stability: decrease in SIM signal after 24 h in degradation solution; carboxypeptidase Y and B in 50 mM ammoniumacetate pH 4.5, 37°C.
Description: Compounds of formula I may be evaluated for their metabolic stability using the procedure described below:
as §1, §2
Carboxypeptidase mix: carboxypeptidase Y and B in 50 mM ammoniumacetate pH 4.5 (all concentrations 0.025 mg/ml).
as §3, §4

Square brackets hold non-standard residues; d marks the D form. Peptide text beside a SMILES is read from it. d2Nal = N[C@H](Cc1ccc2ccccc2c1)C(=O)O

With `C[C@H](NC(=O)[C@@H](Cc1ccc2ccccc2c1)NC(=O)[C@@H](C)N)C(=O)N[C@@H](Cc1c[nH]c2ccccc12)C(=O)N[C@H](Cc1ccccc1)C(=O)N[C@@H](CCCCN)C(N)=O` [GHRP-2] (H-[dA][d2Nal]AW[dF]K-NH2), the Pan. enzyme mix entry in series [1] is “- (Unstable (more than 20% decrease in SIM signal after 24 h in degradation solution))”. In series [2], the Carboxy-peptidase mix entry is “- (Unstable (more than 20% decrease in SIM signal after 24 h in degradation solution))”.

As for `C[C@H](NC(=O)[C@@H](Cc1c[nH]c2ccccc12)NC(=O)[C@@H](N)Cc1c[nH]cn1)C(=O)N[C@@H](Cc1c[nH]c2ccccc12)C(=O)N[C@H](Cc1ccccc1)C(=O)N[C@@H](CCCCN)C(N)=O` [GHRP-6] (H-H[dW]AW[dF]K-NH2), in series [1], the Pan. enzyme mix entry is “- (Unstable (more than 20% decrease in SIM signal after 24 h in degradation solution))”. Also, in series [2], the Carboxy-peptidase mix result was “- (Unstable (more than 20% decrease in SIM signal after 24 h in degradation solution))”.
